# Article PMC11258331 (Scientific Reports, 2024)
# Read-outs that look alike come from different tables or passages of the source. Marks after values point to notes of the source that are not given here.
# What was measured:
# [1] = system: platelet aggregation induced by collagen; test: Collagen (5 μg/ml)-induced platelet aggregation, light transmission aggregometry; assay type: in vivo, human
# Protocol: (§1) PD assessments were performed on Days 1 (≤ 24 h) and 5 (≤ 72 h) of each period (Supplementary Table 8); assessments included aPTT[18], FXIc[18], and bleeding time (assessed according to the PPD® Laboratories [Austin, TX] procedure where a blood pressure cuff, situated above the incision site, provided pressure at 40 mmHg and blood from the incision was wicked with filter paper every 30 s until cessation to record bleeding time). In addition, AA (1 mM), ADP) (20 µM)-, and collagen (5 μg/ml)-induced platelet aggregation assays were performed using light transmission aggregometry (PPD® Laboratories) and performed on Days 1 and 5 (≤ 24 h) for only Period 1.
# [2] = Plasma pharmacokinetics (LC-MS/MS, noncompartmental; GMR by linear mixed-effects model); conditions: for Increase of AUC(TAU) / Increase of Cmax: Treatment I (with milvexian) vs Treatment H (aspirin alone); for Cmax / Tmax / AUC / half-life: human, oral; for AUC: AUC(TAU); for half-life: T1/2, arithmetic mean [n] (SD);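 for all read-outs here: participants at one US clinical research site, randomized 1:1:1 to a single study part, with 90% CIs from a mixed-effects model on log-transformed PK parameters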
# Protocol: (§2) The study (ClinicalTrials.gov Identifier: NCT03698513) was conducted at 1 clinical research center in the United States. […] Participants underwent screening evaluations to determine eligibility within 35 days of study drug administration, and eligible participants were randomly assigned 1:1:1 to a single part of the study.
# (§3) All statistical analyses and calculations were performed using SAS® software (SAS Institute, Inc., Cary, North Carolina; version 9.3). All safety and plasma PK/PD data were summarized using descriptive statistics. Descriptive summaries were presented for continuous variables using number of subjects (N), mean, SD; median, minimum, and maximum. […] CIs were constructed using a linear mixed-effects model with treatment as a fixed effect and measurements within participants as repeated measures fitted to the log-transformed PK parameters.
# [3] = system: platelet aggregation induced by adenosine diphosphate (ADP); test: ADP (20 µM)-induced platelet aggregation, light transmission aggregometry; assay type: in vivo, human
# Protocol: as §1
# healthy participants [4] = test: Adverse events and bleeding-related AEs by treatment, phase I DDI study;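 note: counts from medical review of adverse event and bleeding-related adverse event reports, collected at selected times across the dosing interval, single US site, randomised 1:1:1 to one study part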
# Protocol: Participants underwent screening evaluations to determine eligibility within 35 days of study drug administration, and eligible participants were randomly assigned 1:1:1 to a single part of the study.
# Safety assessments were performed at selected times throughout the dosing interval (Supplementary Table 7). The assessments were based on medical review of AE and bleeding-related AE reports, and the results of vital sign measurements, ECG measurements, physical examinations, and clinical laboratory tests.
# [5] = system: arachidonic acid (AA)-induced platelet aggregation; test: AA (1 mM)-induced platelet aggregation, light transmission aggregometry; assay type: in vivo, human
# Protocol: as §1
# [6] = in vivo
# Protocol: as §2, §3
# [7] = cited from earlier work
# [8] = system: patients who underwent knee arthroplasty; conditions: postoperative treatment, 25 mg QD to 200 mg BID; cited from earlier work
# [9] = system: activated partial thromboplastin time (aPTT); test: Activated partial thromboplastin time (aPTT); assay type: in vivo, human; conditions: postdose on Day 5
# Protocol: as §1
# healthy participants [10] = test: Bleeding time (PPD Laboratories procedure); assay type: in vivo, human; conditions: milvexian alone (Treatments B, D, G)
# Protocol: as §1
# [11] = system: patients with acute ischemic stroke or high risk transient ischemic attack; conditions: 25 mg QD or 25, 50, 100, 200 mg BID on background of aspirin and clopidogrel; cited from earlier work
# [12] = system: cytochrome P450 (CYP)–3A4; conditions: spray-dried dispersion formulation studies; cited from earlier work
# [13] = plasma, geometric mean (90% CI), Day 1, plasma, Treatment A (milvexian + aspirin + clopidogrel), Part 1
# [14] = plasma, geometric mean (90% CI), Day 1, plasma, Treatment C (placebo + aspirin + clopidogrel), Part 1
# [15] = plasma, geometric mean (90% CI), Day 1, plasma, Treatment H (placebo + aspirin), Part 3
# [16] = plasma, geometric mean (90% CI), Day 1, plasma, Treatment I (milvexian + aspirin), Part 3
# [17] = plasma, geometric mean [n] (90% CI), Day 5, plasma, Treatment C (placebo + aspirin + clopidogrel), Part 1
# [18] = plasma, geometric mean [n] (90% CI), Day 5, plasma, Treatment H (placebo + aspirin), Part 3
# [19] = plasma, Tmax, median (range), Day 1, plasma, Treatment A (milvexian + aspirin + clopidogrel), Part 1
# [20] = plasma, Tmax, median (range), Day 1, plasma, Treatment C (placebo + aspirin + clopidogrel), Part 1
# [21] = plasma, Tmax, median (range), Day 1, plasma, Treatment H (placebo + aspirin), Part 3
# [22] = plasma, Tmax, median (range), Day 1, plasma, Treatment I (milvexian + aspirin), Part 3
# [23] = plasma, Tmax, median [n] (range), Day 5, plasma, Treatment C (placebo + aspirin + clopidogrel), Part 1
# [24] = plasma, Tmax, median [n] (range), Day 5, plasma, Treatment H (placebo + aspirin), Part 3
# [25] = milvexian alone (Treatments B, D, G), Days 1 and 5
# [26] = Day 1, Treatment A vs Treatment B (milvexian alone)
# [27] = Day 1, plasma, Treatment F (milvexian + clopidogrel), Part 2
# [28] = plasma, geometric mean [n] (90% CI), Day 5, plasma, Treatment D (milvexian alone), Part 2
smiles,measurement,setting,value
"CC(=O)Oc1ccccc1C(=O)O [Aspirin, acetylsalicylic acid, reference compound]",Inhibition of collagen-induced aggregation compared with baseline,[1]; drug alone (Treatment E or H),~ 25%
same,Increase of AUC(TAU),[2]; Day 1,24%
same,Increase of Cmax,[2]; Day 1,40%
same,Increase of AUC(TAU),[2]; Day 5,19%
same,Increase of Cmax,[2]; Day 5,33%
same,Cmax,[2]; [13],3050 ng/mL
same,Cmax,[2]; [14],2970 ng/mL
same,Cmax,[2]; [15],2450 ng/mL
same,Cmax,[2]; [16],3440 ng/mL
same,Cmax,[2]; [17],2890 ng/mL
same,Cmax,[2]; [18],2670 ng/mL
same,Tmax,[2]; [19],1 h
same,Tmax,[2]; [20],1 h
same,Tmax,[2]; [21],0.5 h
same,Tmax,[2]; [22],0.5 h
same,Tmax,[2]; [23],0.5 h
same,Tmax,[2]; [24],0.508 h
same,Inhibition of ADP-induced aggregation compared with baseline,[3]; drug alone (Treatment E or H),~ 15%
same,Anal fissure hemorrhage,healthy participants [4]; Part 3 (Treatments G-I),0 n (%)
same,Contusion,healthy participants [4]; Part 3 (Treatments G-I),0 n (%)
same,Deaths,healthy participants [4]; Part 3 (Treatments G-I),0 n (%)
same,Discontinuations due to AEs,healthy participants [4]; Part 3 (Treatments G-I),0 n (%)
same,Epistaxis,healthy participants [4]; Part 3 (Treatments G-I),1 (2.6)^‡‡ n (%)
same,Gingival bleeding,healthy participants [4]; Part 3 (Treatments G-I),0 n (%)
same,Serious AEs,healthy participants [4]; Part 3 (Treatments G-I),0 n (%)
same,Total participants with an AE,healthy participants [4]; Part 3 (Treatments G-I),9 (23.7) n (%)
same,Total participants with bleeding event(s),healthy participants [4]; Part 3 (Treatments G-I),1 (2.6) n (%)
same,Vessel puncture site bruise,healthy participants [4]; Part 3 (Treatments G-I),0 n (%)
same,Events of epistaxis reported by a participant,healthy participants [4]; bleeding AE,1 events
same,Percentage of participants reporting AEs,"healthy participants [4]; by treatment, all parts",23.7%
same,Inhibition of AA-induced aggregation compared with baseline,[5]; drug alone (Treatment E or H),~ 95%
O=C(O)[C@H](c1ccccc1Cl)N1CCc2sccc2C1 [Clopidogrel acid],Mean T1/2,[6]; human,approximately 8 h
same,Reduction of Cmax,[6],14%
C[C@@H]1CCC[C@H](n2cnc(-c3cc(Cl)ccc3-n3cc(Cl)nn3)cc2=O)c2cc(ccn2)-c2c(cnn2C(F)F)NC1=O [Milvexian],Urine excretion,[7],< 20%
same,Effect on incidence of venous thromboembolism,[8],reduced the incidence of venous thromboembolism in a dose-dependent manner
same,Change of collagen-induced platelet aggregation compared with baseline,[1]; [25],< 10%
same,Reduction of AUC(TAU),[2]; [26],15%
same,Reduction of Cmax,[2]; [26],17%
same,"Tmax, median (range)","[2]; Day 1, plasma, Treatment A (milvexian + aspirin + clopidogrel), Part 1","4.00 (2.13, 6.02) h"
same,"Tmax, median (range)","[2]; Day 1, plasma, Treatment B (milvexian alone), Part 1","3.00 (2.00, 4.13) h"
same,"Tmax, median (range)","[2]; Day 1, plasma, Treatment D (milvexian alone), Part 2","4.00 (2.00, 6.00) h"
same,"AUC(TAU), geometric mean [n] (90% CI)",[2]; [27],"5042 (4621, 5503) ng•h/mL"
same,"Tmax, median (range)",[2]; [27],"4.00 (2.00, 4.13) h"
same,"Tmax, median (range)","[2]; Day 1, plasma, Treatment G (milvexian alone), Part 3","4.00 (2.00, 6.02) h"
same,"Tmax, median (range)","[2]; Day 1, plasma, Treatment I (milvexian + aspirin), Part 3","4.00 (2.00, 6.03) h"
same,"Tmax, median [n] (range)","[2]; Day 5, plasma, Treatment B (milvexian alone), Part 1","3.00 (0.00, 6.00) h"
same,"Tmax, median [n] (range)","[2]; Day 5, plasma, Treatment F (milvexian + clopidogrel), Part 2","4.00 (1.00, 6.00) h"
same,AUC,"[2]; plasma, geometric mean [n] (90% CI), Day 1, plasma, Treatment B (milvexian alone), Part 1",5610 ng·h/mL
same,AUC,[2]; [28],22000 ng·h/mL
same,Cmax,[2]; [13],718 ng/mL
same,Cmax,"[2]; plasma, geometric mean (90% CI), Day 1, plasma, Treatment B (milvexian alone), Part 1",868 ng/mL
same,Cmax,"[2]; plasma, geometric mean (90% CI), Day 1, plasma, Treatment D (milvexian alone), Part 2",898 ng/mL
same,Cmax,"[2]; plasma, geometric mean (90% CI), Day 1, plasma, Treatment F (milvexian + clopidogrel), Part 2",817 ng/mL
same,Cmax,"[2]; plasma, geometric mean (90% CI), Day 1, plasma, Treatment G (milvexian alone), Part 3",867 ng/mL
same,Cmax,[2]; [16],850 ng/mL
same,Cmax,"[2]; plasma, geometric mean [n] (90% CI), Day 5, plasma, Treatment B (milvexian alone), Part 1",2690 ng/mL
same,Cmax,[2]; [28],2670 ng/mL
same,Cmax,"[2]; plasma, geometric mean [n] (90% CI), Day 5, plasma, Treatment F (milvexian + clopidogrel), Part 2",2500 ng/mL
same,Tmax,"[2]; plasma, Median Tmax, across Treatments A and B",3 to 4 h
same,Tmax,"[2]; plasma, Tmax, median [n] (range), Day 5, plasma, Treatment D (milvexian alone), Part 2",3.05 h
same,Time by which aPTT returned to baseline,[9],≤ 72 h
same,Effect on bleeding time,healthy participants [10],did not increase bleeding times
same,Dose response for composite of symptomatic ischemic stroke or covert brain infarction,[11],did not produce a statistically significant dose response
same,Change of ADP-induced platelet aggregation compared with baseline,[3]; [25],< 10%
same,Route of metabolism,[12],predominantly metabolized by cytochrome P450 (CYP)–3A4
same,Anal fissure hemorrhage,healthy participants [4]; Part 2 (Treatments D-F),0 n (%)
same,Contusion,healthy participants [4]; Part 2 (Treatments D-F),0 n (%)
same,Deaths,healthy participants [4]; Part 2 (Treatments D-F),0 n (%)
same,Discontinuations due to AEs,healthy participants [4]; Part 2 (Treatments D-F),1 (2.8)^§ n (%)
same,Epistaxis,healthy participants [4]; Part 2 (Treatments D-F),0 n (%)
same,Gingival bleeding,healthy participants [4]; Part 2 (Treatments D-F),0 n (%)
same,Serious AEs,healthy participants [4]; Part 2 (Treatments D-F),0 n (%)
same,Total participants with an AE,healthy participants [4]; Part 2 (Treatments D-F),5 (13.9) n (%)
same,Total participants with bleeding event(s),healthy participants [4]; Part 2 (Treatments D-F),0 n (%)
same,Vessel puncture site bruise,healthy participants [4]; Part 2 (Treatments D-F),0 n (%)
same,Anal fissure hemorrhage,healthy participants [4]; Part 3 (Treatments G-I),1 (2.7) n (%)
same,Contusion,healthy participants [4]; Part 3 (Treatments G-I),0 n (%)
same,Deaths,healthy participants [4]; Part 3 (Treatments G-I),0 n (%)
same,Discontinuations due to AEs,healthy participants [4]; Part 3 (Treatments G-I),1 (2.7)^¶ n (%)
same,Epistaxis,healthy participants [4]; Part 3 (Treatments G-I),0 n (%)
same,Gingival bleeding,healthy participants [4]; Part 3 (Treatments G-I),0 n (%)
same,Serious AEs,healthy participants [4]; Part 3 (Treatments G-I),0 n (%)
same,Total participants with an AE,healthy participants [4]; Part 3 (Treatments G-I),6 (16.2) n (%)
same,Total participants with bleeding event(s),healthy participants [4]; Part 3 (Treatments G-I),1 (2.7) n (%)
same,Vessel puncture site bruise,healthy participants [4]; Part 3 (Treatments G-I),0 n (%)
same,Events of anal fissure hemorrhage reported by a single participant,"healthy participants [4]; bleeding AE, Part 3, Treatment G",1 events
same,Effect on AA-induced platelet aggregation,"[5]; milvexian alone (Treatments B, D, G), not consistent, no correlation with milvexian concentration",a decrease in arachidonic acid (AA)-induced platelet aggregation was observed
"O=C(O)c1ccccc1O [Salicylic acid, salicylic acid]",AUC,"[2]; plasma, geometric mean [n] (90% CI), Day 1, plasma, Treatment A (milvexian + aspirin + clopidogrel), Part 1",92700 ng·h/mL
same,AUC,"[2]; plasma, geometric mean [n] (90% CI), Day 1, plasma, Treatment C (placebo + aspirin + clopidogrel), Part 1",93500 ng·h/mL
same,AUC,"[2]; plasma, geometric mean [n] (90% CI), Day 1, plasma, Treatment H (placebo + aspirin), Part 3",93300 ng·h/mL
same,AUC,"[2]; plasma, geometric mean [n] (90% CI), Day 1, plasma, Treatment I (milvexian + aspirin), Part 3",93600 ng·h/mL
same,AUC,[2]; [17],92000 ng·h/mL
same,AUC,[2]; [18],92500 ng·h/mL
same,Cmax,[2]; [13],17600 ng/mL
same,Cmax,[2]; [14],18100 ng/mL
same,Cmax,[2]; [15],16500 ng/mL
same,Cmax,[2]; [16],16300 ng/mL
same,Cmax,[2]; [17],17300 ng/mL
same,Cmax,[2]; [18],16500 ng/mL
same,half-life,"[2]; plasma, Day 1, plasma, Treatment A (milvexian + aspirin + clopidogrel), Part 1",2.21 h
same,half-life,"[2]; plasma, Day 1, plasma, Treatment C (placebo + aspirin + clopidogrel), Part 1",2.25 h
same,half-life,"[2]; plasma, Day 1, plasma, Treatment H (placebo + aspirin), Part 3",2.4 h
same,half-life,"[2]; plasma, Day 1, plasma, Treatment I (milvexian + aspirin), Part 3",2.39 h
same,half-life,"[2]; plasma, Day 5, plasma, Treatment C (placebo + aspirin + clopidogrel), Part 1",2.23 h
same,half-life,"[2]; plasma, Day 5, plasma, Treatment H (placebo + aspirin), Part 3",2.39 h
same,Tmax,[2]; [19],2 h
same,Tmax,[2]; [20],2 h
same,Tmax,[2]; [21],2.03 h
same,Tmax,[2]; [22],2 h
same,Tmax,[2]; [23],2.02 h
same,Tmax,[2]; [24],3 h
